Test results: PubChem BioAssay AID1918941 (Molecular Pharmacology Branch, DTP, NCI, 2023)

System: SW 1271 complex spheroids, viability
Test: Anticancer human tumor SW 1271 cell line growth inhibition [LSD1];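 note: spheroids exposed to agents for 7 days before luminescence read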;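 for viability, T/C: 100% = DMSO vehicle control viability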
Conditions: for IC50: curve of first compound; for viability, T/C: stronger effect = lower value
How it was run: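 Drug combinations with the LSD1 inhibitor iadademstat tested on tumor cells co-cultured as spheroids with endothelial cells and mesenchymal stem cells. Concentrations descended in half-log increments from clinical Cmax or 10 microM.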

Nc1ncn(C2CC(O)C(CO)S2)c(=O)n1 (stereo not given) + NC1CC1c1ccc(-c2cccc(O)c2)cc1
IC50 (second compound 0.1 µM): > 0.3 µM
IC50 (second compound 0.316 µM): > 0.3 µM
IC50 (second compound 1 µM): > 0.3 µM
IC50 (second compound 3.16 µM): > 0.3 µM
IC50 (second compound 10 µM): > 0.3 µM
viability, T/C (second compound 0.1 µM, first compound 0.000949 µM): 90.1%
viability, T/C (second compound 0.1 µM, first compound 0.003 µM): 91.7%
viability, T/C (second compound 0.1 µM, first compound 0.00949 µM): 82%
viability, T/C (second compound 0.1 µM, first compound 0.03 µM): 76.2%
viability, T/C (second compound 0.1 µM, first compound 0.0949 µM): 82%
viability, T/C (second compound 0.1 µM, first compound 0.3 µM): 63%
viability, T/C (second compound 0.316 µM, first compound 0.000949 µM): 79.2%
viability, T/C (second compound 0.316 µM, first compound 0.003 µM): 83.6%
viability, T/C (second compound 0.316 µM, first compound 0.00949 µM): 86.3%
viability, T/C (second compound 0.316 µM, first compound 0.03 µM): 67.9%
viability, T/C (second compound 0.316 µM, first compound 0.0949 µM): 53.5%
viability, T/C (second compound 0.316 µM, first compound 0.3 µM): 57.8%
viability, T/C (second compound 1 µM, first compound 0.000949 µM): 85.3%
viability, T/C (second compound 1 µM, first compound 0.003 µM): 73.3%
viability, T/C (second compound 1 µM, first compound 0.00949 µM): 75.6%
viability, T/C (second compound 1 µM, first compound 0.03 µM): 65.3%
viability, T/C (second compound 1 µM, first compound 0.0949 µM): 64.4%
viability, T/C (second compound 1 µM, first compound 0.3 µM): 67.5%
viability, T/C (second compound 3.16 µM, first compound 0.000949 µM): 70.5%
viability, T/C (second compound 3.16 µM, first compound 0.003 µM): 79.4%
viability, T/C (second compound 3.16 µM, first compound 0.00949 µM): 79.1%
viability, T/C (second compound 3.16 µM, first compound 0.03 µM): 62.3%
viability, T/C (second compound 3.16 µM, first compound 0.0949 µM): 60.8%
viability, T/C (second compound 3.16 µM, first compound 0.3 µM): 58.8%
viability, T/C (second compound 10 µM, first compound 0.000949 µM): 66.4%
viability, T/C (second compound 10 µM, first compound 0.003 µM): 65.1%
viability, T/C (second compound 10 µM, first compound 0.00949 µM): 60.9%
viability, T/C (second compound 10 µM, first compound 0.03 µM): 66.5%
viability, T/C (second compound 10 µM, first compound 0.0949 µM): 62.7%
viability, T/C (second compound 10 µM, first compound 0.3 µM): 58.9%

CC(C)c1c(-c2ccccc2)nc2c(C#N)c[nH]n2c1=O + NC1CC1c1ccc(-c2cccc(O)c2)cc1
IC50 (second compound 0.1 µM): > 10 µM
IC50 (second compound 0.316 µM): > 10 µM
IC50 (second compound 1 µM): > 10 µM
IC50 (second compound 3.16 µM): 9.23 µM
IC50 (second compound 10 µM): > 10 µM
viability, T/C (second compound 0.1 µM, first compound 0.0316 µM): 71.8%
viability, T/C (second compound 0.1 µM, first compound 0.1 µM): 86%
viability, T/C (second compound 0.1 µM, first compound 0.316 µM): 78.7%
viability, T/C (second compound 0.1 µM, first compound 1 µM): 77.5%
viability, T/C (second compound 0.1 µM, first compound 3.16 µM): 73.2%
viability, T/C (second compound 0.1 µM, first compound 10 µM): 72.9%
viability, T/C (second compound 0.316 µM, first compound 0.0316 µM): 74.7%
viability, T/C (second compound 0.316 µM, first compound 0.1 µM): 70.4%
viability, T/C (second compound 0.316 µM, first compound 0.316 µM): 80.9%
viability, T/C (second compound 0.316 µM, first compound 1 µM): 52.4%
viability, T/C (second compound 0.316 µM, first compound 3.16 µM): 58.5%
viability, T/C (second compound 0.316 µM, first compound 10 µM): 61.6%
viability, T/C (second compound 1 µM, first compound 0.0316 µM): 66.4%
viability, T/C (second compound 1 µM, first compound 0.1 µM): 96.2%
viability, T/C (second compound 1 µM, first compound 0.316 µM): 78.4%
viability, T/C (second compound 1 µM, first compound 1 µM): 75%
viability, T/C (second compound 1 µM, first compound 3.16 µM): 58.6%
viability, T/C (second compound 1 µM, first compound 10 µM): 61.3%
viability, T/C (second compound 3.16 µM, first compound 0.0316 µM): 70.5%
viability, T/C (second compound 3.16 µM, first compound 0.1 µM): 68.4%
viability, T/C (second compound 3.16 µM, first compound 0.316 µM): 70%
viability, T/C (second compound 3.16 µM, first compound 1 µM): 58.2%
viability, T/C (second compound 3.16 µM, first compound 3.16 µM): 58.9%
viability, T/C (second compound 3.16 µM, first compound 10 µM): 49.2%
viability, T/C (second compound 10 µM, first compound 0.0316 µM): 56.6%
viability, T/C (second compound 10 µM, first compound 0.1 µM): 63%
viability, T/C (second compound 10 µM, first compound 0.316 µM): 82.6%
viability, T/C (second compound 10 µM, first compound 1 µM): 61.6%
viability, T/C (second compound 10 µM, first compound 3.16 µM): 50.8%
viability, T/C (second compound 10 µM, first compound 10 µM): 54.1%
